Measured values reported in patent publication US11390617B2, “Methods of treating non-Hodgkin lymphoma using 2-(2,6-dioxopiperidin-3-yl)-4-((2-fluoro-4-((3-morpholinoazetidin-1-yl)methyl)benzyl)amino)isoindoline-1,3-dione” (Celgene Corporation, priority 2019, dated 2022).

How the values were obtained:
Assay in all cases: NHL cell line viability/apoptosis 384-well flow cytometry assay
Format in all cases: cell-based
[1] = system: U-2946; details: U-2946 (DLBCL), 120 hours
Method: (§1) The following exemplary anti-proliferative assay uses exemplary non-Hodgkin lymphoma (NIL) cell lines (including diffuse large B-cell lymphoma (DLBCL), follicular lymphoma (FL), and mantle cell lymphoma (MCL)) (Table 5). The in vitro growth inhibitory activity of Compound 1 described herein was evaluated using a 384-well flow cytometry assay.
(§2) The cell lines in Table 5 were plated in 384-well flat bottom plates and assessed with increasing concentrations of compound ranging from 0.00015 to 10 μM or dimethyl sulfoxide (DMSO) control. The final concentration of DMSO was 0.1% (v/v). Following the addition of Compound 1 or DMSO and incubation for 120 hours, cell number and cell death were analyzed by flow cytometry (Attune®, Thermo Fisher) using Annexin V and the live-cell impermeant DNA dye, DRAQ7. Phosphatidylserine translocates from the inner layer to the outer layer of the cell membrane early in apoptosis and Annexin V binds to the exposed phosphatidylserine found on the surface of an apoptotic cell. The vital dye DRAQ7 is excluded by intact live cells and only stains cells that have died as a result of apoptosis or necrosis.
(§3) Flow cytometry data analysis was then performed using the Flow Jo_v10 software to determine the number of viable cells (Annexin V and DRAQ7 double negative staining cells) and percentage of apoptotic cells (Annexin V positive cells) for each condition. The live cell count for every concentration was normalized to the DMSO control (considered as 100%) to calculate the percentage of viable cells remaining after treatment and graphed using GraphPad Prism 7.03. The IC50 (50% inhibitory concentration) and Emax (maximum efficacy achieved) values were then calculated by performing nonlinear regression curve fitting using log(inhibitor) vs. normalized response—variable slope analysis on GraphPad Prism 7.03. Area under the curve (AUC) was calculated by performing area under curve analysis on GraphPad Prism 7.03. Similarly, for apoptosis analysis, the percentage of apoptosis combining both “early” (Annexin V positive and DRAQ7 negative) and “late” apoptosis (Annexin V and DRAQ7 positive) cell gates relative to DMSO was graphed using GraphPad Prism 7.03. The AUC, EC50 (concentration of Compound 1 that produces half-maximal apoptosis response) and Ymax (maximal percentage of apoptosis achieved) values from apoptosis curves were calculated by performing area under curve analysis and nonlinear regression curve fitting using log(agonist) vs. normalized response—Variable slope analysis on GraphPad Prism 7.03.
(§4) In Table 6, dose-response proliferation curves for the panel of NHL cell lines and non-linear curve-fit regression were used to determine IC50, AUC, and Emax for % viable cells (Emax for viability varies between 100 at low doses and 0 at high doses, which corresponds to inhibition of all viable cells), and dose-response apoptosis curves were used to determine the EC50, AUC, and Ymax for % apoptosis (Ymax for apoptosis varies from 0 at low doses and 100 at higher doses which corresponds to death of all cells). Tumor cells were exposed to serial dilutions (0.00015 to 10 μM) of Compound 1 or dimethyl sulfoxide (DMSO) control for 5 days. Viability and apoptosis for all cell lines was determined by Annexin V/[…] flow cytometry.

[2] = system: STR428; details: STR428 (DLBCL), 120 hours
Method: as §1, §2, §3, §4

[3] = system: ROS-50; details: ROS-50 (DLBCL), 120 hours
Method: as §1, §2, §3, §4

[4] = system: CARNAVAL; details: CARNAVAL (DLBCL), 120 hours
Method: as §1, §2, §3, §4

[5] = system: SU-DHL-4; details: SU-DHL-4 (DLBCL), 120 hours
Method: as §1, §2, §3, §4

[6] = system: Toledo; details: Toledo (DLBCL), 120 hours
Method: as §1, §2, §3, §4

[7] = system: HT; details: HT (DLBCL), 120 hours
Method: as §1, §2, §3, §4

[8] = system: OCI-LY3; details: OCI-LY3 (DLBCL), 120 hours
Method: as §1, §2, §3, §4

[9] = system: U-2973; details: U-2973, 120 hours
Method: as §1, §2, §3, §4

[10] = system: SU-DHL-1; details: SU-DHL-1 (DLBCL), 120 hours
Method: as §1, §2, §3, §4

[11] = system: SU-DHL-5; details: SU-DHL-5 (DLBCL), 120 hours
Method: as §1, §2, §3, §4

[12] = system: WSU-DLCL2; details: WSU-DLCL2 (DLBCL), 120 hours
Method: as §1, §2, §3, §4

[13] = read-out: IC50 (% Viable Cells)
[14] = Homo sapiens, read-out: IC50 (% Viable Cells)

O=C1CC[C@H](N2C(=O)c3cccc(NCc4ccc(CN5CC(N6CCOCC6)C5)cc4F)c3C2=O)C(=O)N1 [Compound 1, (S)-2-(2,6-dioxopiperidin-3-yl)-4-((2-fluoro-4-((3-morpholinoazetidin-1-yl)methyl)benzyl)amino)isoindoline-1,3-dione]
AUC (% Viable Cells) [1]: 45.47 | AUC (Apoptosis) [1]: 762.6 | EC50 [1]: 192 nM | Emax (% Viable Cells) [1]: 0.4821% | Ymax (Apoptosis) [1]: 93.34% | IC50 [1, 13]: 4.6 nM | AUC (% Viable Cells) [2]: 43.48 | AUC (Apoptosis) [2]: 905.9 | EC50 [2]: 102 nM | Emax (% Viable Cells) [2]: 1.227% | Ymax (Apoptosis) [2]: 95.17% | IC50 [2, 13]: 94.7 nM | AUC (% Viable Cells) [3]: 762.1 | AUC (Apoptosis) [3]: 87.92 | EC50 [3]: 335 nM | Emax (% Viable Cells) [3]: 65.57% | Ymax (Apoptosis) [3]: 10.9% | IC50 [3, 13]: ≥ 10000 nM | AUC (% Viable Cells) [4]: 110.6 | AUC (Apoptosis) [4]: 708.7 | EC50 [4]: 152 nM | Emax (% Viable Cells) [4]: 7.134% | Ymax (Apoptosis) [4]: 77.84% | IC50 [4, 13]: 9.12 nM | EC50 ([5]; Homo sapiens): 782 nM | IC50 [5, 14]: 278 nM | AUC (% Viable Cells) [5]: 296.2 | AUC (Apoptosis) [5]: 209 | Emax (% Viable Cells) [5]: 23.44% | Ymax (Apoptosis) [5]: 25.33% | EC50 ([6]; Homo sapiens): 223 nM | IC50 [6, 14]: 2 nM | AUC (% Viable Cells) [6]: 112.3 | AUC (Apoptosis) [6]: 231.4 | Emax (% Viable Cells) [6]: 8.56% | Ymax (Apoptosis) [6]: 27.5% | AUC (% Viable Cells) [7]: 396.7 | AUC (Apoptosis) [7]: 225.3 | Emax (% Viable Cells) [7]: 30.39% | Ymax (Apoptosis) [7]: 25.16% | EC50 ([7]; Homo sapiens): 66.2 nM | IC50 [7, 14]: 319 nM | EC50 ([8]; Homo sapiens): 0.263 nM | IC50 [8, 14]: ≥ 10000 nM | AUC (% Viable Cells) [8]: 965.1 | AUC (Apoptosis) [8]: 24.63 | Emax (% Viable Cells) [8]: 85.63% | Ymax (Apoptosis) [8]: 4.493% | EC50 ([9]; Homo sapiens): 2160 nM | IC50 [9, 14]: 6780 nM | AUC (% Viable Cells) [9]: 853.4 | AUC (Apoptosis) [9]: 391.9 | Emax (% Viable Cells) [9]: 19.45% | Ymax (Apoptosis) [9]: 60.8% | EC50 ([10]; Homo sapiens): 1.1 nM | IC50 [10, 14]: 0.549 nM | AUC (% Viable Cells) [10]: 31.14 | AUC (Apoptosis) [10]: 690.1 | Emax (% Viable Cells) [10]: 2.485% | Ymax (Apoptosis) [10]: 73.83% | EC50 ([11]; Homo sapiens): 3.6 nM | IC50 [11, 14]: 2.39 nM | AUC (% Viable Cells) [11]: 1.873 | AUC (Apoptosis) [11]: 934.1 | Emax (% Viable Cells) [11]: 0.1398% | Ymax (Apoptosis) [11]: 95.23% | EC50 ([12]; Homo sapiens, WSUDLCL2): 84.7 nM | IC50 ([12]; Homo sapiens, WSUDLCL2, read-out: IC50 (% Viable Cells)): 16.9 nM | AUC (% Viable Cells) [12]: 36.7 | AUC (Apoptosis) [12]: 858.9 | Emax (% Viable Cells) [12]: 1.387% | Ymax (Apoptosis) [12]: 92.1%
